Patent US8618114B2 (priority 2008, dated 2013)
Structures can show the parent of a compound that is named as a salt.

Legend:
[1] = test system: male mice of BALB/c line; experiment: Mice Behavior in the Elevated Plus Maze; assay type: in vivo, mouse
Procedure: Anxiolytic activity of compounds 1.1(11), 1.2.7(1), 1.2.6(1), 1.2.3(1), 1.2.11(1), 1.2.22(1), 1.2.22(18) in test “Mice Behavior in the Elevated Plus Maze”. The experiments were carried out in aged male mice of BALB/c line weighing about 25 g. The animals were housed 5-7 per cage with water and food available. None of the animals was acquainted with the experimental set-up before. Each experimental group included 8 animals.
The procedure used was described earlier by Lister (Lister R. G. The use of a plus-maze to measure anxiety in the mouse. Psychopharmacology, 1987; 92:180-185). Plexiglass set-up consisted of two opened arms of 30×5 cm size and two closed arms of 30×5×15 cm size. Side arms were closed with transparent plexiglass and were connected with the central zone via a platform of 5×5 cm size. The opened arms, central platform and floor were made of black plexiglass. The set-up was mounted on a metallic base which was placed 38.5 cm above the floor level.
The animals were injected intraperitoneally with placebo, Buspirone (5 mg/kg, 30 minutes before training), Lorazepam (0.05 mg/kg, 60 minutes before training) or with one of the tested compounds 1.1(11), 1.2.7(1), 1.2.6(1), 1.2.3(1), 1.2.11(1), 1.2.22(1), 1.2.22(18). Buspirone and Lorazepam were introduced in a maximal effective dose, at which side sedative effect and general decrease of exploratory activity (the number of arm entries during the test) were not observed yet.
Each mouse was placed in the maze center with its head towards the opened arm. Over a period of 5 minutes the sequence and duration of arm entries were registered by means of a computer program. Criterion for entry is a location of all animal's paws inside the arm at the same time. The index of preference was calculated as a ratio of the time spent by the animal in the opened arms as well as the number of entries into the opened arms to the total time spent by it in the opened and closed arms or, respectively, to the whole number of entries to the arms of both types. The number of defecations left by a mouse was regarded as an additional parameter characterizing the anxiety state. Being in normal state the animals usually avoid open arms (the preference index is between 0.2 and 0.3).

[2] = target: T1, 5-HT6 receptor (Homo sapiens (Human), UniProt P50406); experiment: competitive radioligand binding ([3H] Lysergic acid diethylamide) to serotonin 5-HT6 receptors, HeLa cell membranes; conditions: read-out: IC50, competitive assay of serotonin 5-HT6 receptor inhibition; displacement of 1.5 nM [3H] Lysergic acid diethylamide, 120 min at 37° C.
T1 sequence (P50406 whole entry): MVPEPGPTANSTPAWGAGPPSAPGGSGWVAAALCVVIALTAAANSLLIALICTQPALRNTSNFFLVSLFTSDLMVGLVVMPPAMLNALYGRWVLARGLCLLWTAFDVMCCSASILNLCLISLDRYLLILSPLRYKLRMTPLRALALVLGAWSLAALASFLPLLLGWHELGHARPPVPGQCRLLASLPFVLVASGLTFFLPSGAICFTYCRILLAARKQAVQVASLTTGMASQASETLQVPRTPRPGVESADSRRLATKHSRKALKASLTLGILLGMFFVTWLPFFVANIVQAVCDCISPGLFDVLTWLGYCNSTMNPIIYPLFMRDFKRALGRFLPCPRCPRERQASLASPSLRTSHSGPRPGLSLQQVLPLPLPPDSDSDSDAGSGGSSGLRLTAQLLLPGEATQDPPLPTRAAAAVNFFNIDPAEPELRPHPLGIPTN
Procedure: Determination of activity of the compounds of the general formula 1 in the setting of competitive binding to serotonin 5-HT6 receptors.
Screening of the disclosed compounds for their potential ability to interact with serotonin 5-HT6 receptors was carried out by method of radioligand binding. For this purpose membrane species were prepared from expressing recombinant human 5-HT6 receptors HeLa cells by means of their homogenization in glass homogenizer with subsequent separation of plasmatic membranes from cell nucli, mitochondria's and cell wreckages by differential centrifugation. Determination of tested compounds binding to 5-HT6 receptors was carried out according to the method described in [Monsma F J Jr, Shen Y, Ward R P, Hamblin M W and Sibley D R, Cloning and expression of a novel serotonin receptor with high affinity for tricyclic psychotropic drugs. […] After incubation the samples were filtered in vacuo on glass-microfiber filters G/F (Millipor, USA), filters were washed three times with cold solution of the medium and radioactivity was measured by scintillation counter MicroBeta 340 (PerkinElmer, USA). Nonspecific binding which made up 30% of overall binding was determined by incubation of membrane preparations with radioligand in the presence of 5 μM Serotonin (5-HT). Methiothepin was used as positive control. Binding of the tested compounds to the receptor was determined by their ability to displace the radioligand and expressed in percent of displacement. The percent of displacement was calculated according to the following equation:
[formula] wherein: TA—was overall radioactivity in the presence of radioligand only, CA—was radioactivity in the presence of radioligand and tested compound and NA—was radioactivity in the presence of radioligand and Serotonin (5 μM).

[3] = target: T1, 5-HT6 receptor; experiment: functional assay for serotonin 5-HT6 receptor inhibition (serotonin-induced intracellular cAMP, LANCE cAMP kit, HEK 293 cells); assay type: cell-based; conditions: HEK 293 cells with expressed 5-HT6 receptor; reduction of serotonin-induced intracellular cAMP
Procedure: Determination of antagonistic activity of compounds of the general formula 1 towards 5-HT6 receptors. Compounds of the general formula 1 were tested for their ability to prevent 5-HT6 receptors activation by serotonin. HEK 293 cells (cells of human embryo's kidney) with artificially expressed 5-HT6 receptor, activation of which by serotonin leads to increasing the concentration of intracellular cAMP, were used. The level of intracellular cAMP was determined using reagent kit LANCE cAMP (PerkinElmer) according to the method described by the manufacturer of the kit [http://las.perkinelmer.com/content/Manuals/MAN_LANCEcAMP384KitUser.pdf]. Effectiveness of the compounds was estimated by their ability to reduce the level of intracellular cAMP induced by serotonin. Table 4 presents IC50 values for the compounds of general formula 1 in the setting of functional assay for serotonin 5-HT6 receptor inhibition. The data given testify their moderate or high antagonistic activity.

[4] = test system: male mice of SHK line; experiment: Novel object recognition test, Scopolamine amnesia model; assay type: in vivo, mouse; conditions: Scopolamine 1 mg/kg i.p.
Procedure: 14.1.2. Novel object recognition test. The test was carried out in aged male mice of SHK line. […] A mouse was placed into the central chamber and allowed to explore the maze. The floor was cleaned after each animal. The sequence of chamber entries and duration of visits were registered by the observer. The test was ended after 13 entries into the dead-end chambers. Criterion for entry was a location of all animal's paws inside the chamber at the same time.
During the training the animal was placed in the maze with one equiform bowl in each side chamber. In the course of testing (one hour after training) two opposite standing bowls were replaced by identical flasks, and the animal was allowed to explore the maze. The time spent by the animal in each side chamber was registered during the periods of training and testing. Index of novel object recognition was calculated as the ratio of time spent by the animal in the side chambers with novel objects to the total time spent by it in all side chambers.

[5] = test system: Mice of SHK line; experiment: Prepulse inhibition of the startle response in mice (Apomorphine model); assay type: in vivo, mouse; conditions: 1 mg/kg i.p. 60 minutes before the test; FIG. 17
Procedure: Mice of SHK line weighing about 24-30 g were used in the test. The experiments were carried out during the light period of animal's diurnal. Apomorphine hydrochloride and Haloperidol were received from Sigma Chemicals Company, (USA). Apomorphine hydrochloride was dissolved in 0.1% solution of ascorbic acid prepared with sterilized water; it was introduced subcutaneously 15 minutes before the test. Haloperidol was dissolved in sterilized water using emulsifier Twin 80, it was introduced intraperitoneally 60 minutes before the test. Compounds 1.2.22(1), 1.2.22(18), 1.2.7(1) were dissolved in sterilized water and introduced intraperitoneally 60 minutes before the test. The injection volume was 10 ml/kg. 0.1%. Solution of ascorbic acid, prepared with sterilized water and Twin 80, was injected to control group of animals.
The test instrument consisted of a chamber made of transparent plexiglass (manufacturer—Columbia Instruments Company, USA) and placed on the platform; the latter was lodged inside the sound insulating chamber. A high frequency sound column transmitting acoustic stimuluses was located 2 cm away from the platform. […] The level of background noise made up 65 dB. Each animal received 4 stimuli of single testing (pulse) stimulus of 50 ms duration and 105 dB or prepulsory stimulus (pre-pulse) of 20 ms duration and 85 dB, after which in 30 ms pulse stimulus of 50 ms duration and 105 dB followed. Time interval between repeated pulse or prepulse in combination with pulse stimuli made up 10 s. Inhibition of the startle in reply to prepulse-plus-pulse stimulus was calculated in percentage towards amplitude of startle in response to isolated pulse stimulus.

[6] = test system: rats; experiment: Passive avoidance in the shuttle chamber, amnesia caused by MK-801, rats; assay type: in vivo, rat; conditions: MK-801 0.1 mg/kg i.p., compounds injected 60 minutes before the test, FIG. 8-10

SMILES | IC50 [2] | IC50 [3] | also measured
CNc1nn2c(N)cc(C)nc2c1S(=O)(=O)c1ccccc1 [1.2.11(1), 7-amino-5-methyl-2-methylamino-3-phenylsulfonyl-pyrazolo[1,5-a]pyrimidine] | 0.293 nM | 12 nM | anxiolytic activity in the elevated plus maze ([1]; tested compounds i.p., FIG. 14-16): anxiolytic activity analogous to the activity of control compounds
CSc1nn2ccc(C)nc2c1S(=O)(=O)c1ccc(F)cc1 [1.1.2(2), 5-methyl-2-methylsulfanyl-3-(4-fluorophenylsulfonyl)-pyrazolo[1,5-a]pyrimidine] | 50 nM | 996 nM | 
CNc1nn2c(N3CCN(C)CC3)cc(C)nc2c1S(=O)(=O)c1ccccc1 [1.2.12(4).HCl] | 4.19 nM | 173 nM | 
O=C1Nc2ccc(Cl)cc2C(c2ccccc2Cl)=NC1O (stereo not shown) [Lorazepam, reference compound] |  |  | anxiolytic effect in the elevated plus maze ([1]; Lorazepam 0.05 mg/kg i.p., 60 minutes before training): well-marked anxiolytic effect
CSc1nn2c(C)ccnc2c1S(=O)(=O)c1ccccc1 [1.1.3(1), 7-methyl-2-methylsulfanyl-3-phenylsulfonyl-pyrazolo[1,5-a]pyrimidine] | 40 nM | 1110 nM | 
Cc1ccc2c(c1)c1c(n2CCc2ccc(C)nc2)CCN(C)C1 [Dimebon, reference compound] |  |  | prevention of Scopolamine-disturbed novel object recognition ([4]; Dimebon 0.1 mg/kg i.p. 5 minutes before training): prevented
CNc1nn2c(NCCN(C)C)cc(C)nc2c1S(=O)(=O)c1ccccc1 [1.2.12(3), 7-(2-dimethylamino)ethylamino-5-methyl-2-methylamino-3-phenylsulfonyl-pyrazolo[1,5-a]pyrimidine] | 69.9 nM | 1550 nM | 
CNc1nn2c(C)c(CCC(=O)N3CCN(C)CC3)c(C)nc2c1S(=O)(=O)c1ccccc1 [1.2.19(4).HCl] | 306 nM | 6060 nM | 
CNc1nn2c(OC)cc(-c3cccnc3)nc2c1S(=O)(=O)c1ccccc1 [1.2.10(3), 2-methylamino-7-methoxy-5-(pyridin-3-yl)-3-phenylsulfonyl-pyrazolo[1,5-a]pyrimidine] | < 10 nM | 12 nM | 
O=C(CCCN1CCC(O)(c2ccc(Cl)cc2)CC1)c1ccc(F)cc1 [Haloperidol, reference compound] |  |  | effect on Apomorphine-disturbed prepulse inhibition of startle [5]: prevented disturbance of prepulse inhibition of startle caused by Apomorphine
CNc1nn2c(C)c(CCN)c(C)nc2c1S(=O)(=O)c1ccccc1 [1.2.22(3).HCl] | 0.645 nM | 45 nM | 
COc1cc(-c2cccnc2)nc2c(S(=O)(=O)c3ccccc3)c(SC)nn12 [1.1.8(3), 2-methylsulfanyl-7-methoxy-5-(pyridin-3-yl)-3-phenylsulfonyl-pyrazolo[1,5-a]pyrimidine] | < 10 nM | < 10 nM | 
Nc1c2c(nc3ccccc13)CCCC2 [Tacrine, reference compound] |  |  | prevention of Scopolamine-disturbed novel object recognition ([4]; Tacrine 10 mg/kg i.p. 30 minutes before training): prevented
CSc1nn2c(C)c(Cl)c(C)nc2c1S(=O)(=O)c1ccccc1 [1.1(4)] | < 10 nM | 300 nM | 
CNc1nn2c(C)c(N)c(C)nc2c1S(=O)(=O)c1ccccc1.Cl [1.2.22(1), 6-amino-5,7-dimethyl-2-methylamino-3-phenylsulfonyl-pyrazolo[1,5-a]pyrimidine] |  |  | effect on Apomorphine-disturbed prepulse inhibition of startle [5]: prevented disturbance of prepulse inhibition of startle caused by Apomorphine; effect on amnesia caused by MK-801 (latent period, light arm stay, dark arm entries) [6]: decrease amnesia caused by MK-801; prevention of Scopolamine-disturbed novel object recognition ([4]; compounds i.p. 60 minutes before training, FIG. 7): prevent memory impairment caused by Scopolamine
O=C1CC2(CCCC2)CC(=O)N1CCCCN1CCN(c2ncccn2)CC1 [Buspirone, reference compound] |  |  | anxiolytic effect in the elevated plus maze ([1]; Buspirone 5 mg/kg i.p., 30 minutes before training): well-marked anxiolytic effect
CNc1nn2c(C)c(CN)c(C)nc2c1S(=O)(=O)c1cccc(Cl)c1 [1.2.22(5).HCl] | 0.227 nM | 10 nM | 
CSc1nn2c(C)c(Oc3ccccc3)c(C)nc2c1S(=O)(=O)c1ccccc1 [1.1(6)] | 50 nM | > 10000 nM | 
CNc1nn2c(C)c(CCC(=O)N(C)CCN(C)C)c(C)nc2c1S(=O)(=O)c1ccccc1 [1.2.19(2).HCl] | 174 nM | 1680 nM | 
CNc1nn2c(C)c(CN)c(C)nc2c1S(=O)(=O)c1ccccc1 [1.2.22(2).HCl] | 0.56 nM | 9 nM | 
CNc1nn2c(C)ccnc2c1S(=O)(=O)c1ccccc1 [1.2.3(1), 7-methyl-2-methylamino-3-phenylsulfonyl-pyrazolo[1,5-a]pyrimidine] | 0.74 nM | 3 nM | 
CNc1nn2c(C)c(N)c(C)nc2c1S(=O)(=O)c1ccccc1 [1.2.22(1).HCl] | 0.67 nM | 11.3 nM | 
CNc1nn2cccnc2c1S(=O)(=O)c1ccc(F)cc1 [1.2.1(2), 2-methylamino-3-(4-fluorophenylsulfonyl)-pyrazolo[1,5-a]pyrimidine] | 18 nM | 45 nM | 
CNc1nn2cccnc2c1S(=O)(=O)c1cccc(Cl)c1 [1.2.1(4), 2-methylamino-3-(3-chlorophenylsulfonyl)-pyrazolo[1,5-a]pyrimidine] | 5.01 nM | 24 nM | 
CNc1nn2c(COC)cc(C)nc2c1S(=O)(=O)c1ccccc1 [1.2.4(1), 5-methyl-2-methylamino-7-(methoxymethyl)-3-phenylsulfonyl-pyrazolo[1,5-a]pyrimidine] | 0.34 nM | 101 nM | 
CNc1nn2c(C)c(CCC(=O)N(C)CCCN(C)C)c(C)nc2c1S(=O)(=O)c1ccccc1 [1.2.19(3).HCl] | 291 nM | 2280 nM | 
